The target in the assay is METTL3/METTL14 (Homo sapiens, UniProt Q86U44). Nature of the assay: METTL3-14 standard enzyme assay (3H-SAM flashplate). The settings on record: Table 4; METTL3 biochemical assay. Here is the method:
METTL3-14 Standard Enzyme Assay
Assays were performed in a 25 μl-volume in 384-well V-bottom polypropylene microplates (Greiner Bio-One, cat. No. 781280) at ambient temperature. Optimized 1× assay buffer was 20 mM HEPES pH 7.5, 50 mM KCl, 250 μM MgCl2, 1 mM DTT, 0.01% Tween, 0.01% BSG, 0.004 U/μl RNAseOUT (cat. No. 10777019, ThermoFisher Scientific, Waltham, MA). For compound screening METTL3/METTL14 (final concentration, f.c.=2.5 nM) was added using a Multidrop Combi (ThermoFisher Scientific, Waltham, MA) and preincubated for 5 min. Reactions were started by adding 3′ biotinylated RNA (UCUGGACUAAA-biotin) (f.c.=100 nM) and 3H-SAM (f.c.=100 nM) substrates. Reactions proceeded for 30 minutes and were quenched with excess non-radioactive SAM (f.c.=15 μM). The reactions were then transferred to streptavidin-coated flashplates and incubated for 2 hours at 25° C. Following two washing cycles with 0.1% Tween-20, the plates were sealed and read on a TopCount (PerkinElmer, Waltham, MA) plate-based scintillation counter. For determination of kinetic parameters, reaction times were optimized so that measurements were taken during the initial velocity phase of the reaction.
METTL3/METTL14, sequence (Q86U44 whole entry, species assumed): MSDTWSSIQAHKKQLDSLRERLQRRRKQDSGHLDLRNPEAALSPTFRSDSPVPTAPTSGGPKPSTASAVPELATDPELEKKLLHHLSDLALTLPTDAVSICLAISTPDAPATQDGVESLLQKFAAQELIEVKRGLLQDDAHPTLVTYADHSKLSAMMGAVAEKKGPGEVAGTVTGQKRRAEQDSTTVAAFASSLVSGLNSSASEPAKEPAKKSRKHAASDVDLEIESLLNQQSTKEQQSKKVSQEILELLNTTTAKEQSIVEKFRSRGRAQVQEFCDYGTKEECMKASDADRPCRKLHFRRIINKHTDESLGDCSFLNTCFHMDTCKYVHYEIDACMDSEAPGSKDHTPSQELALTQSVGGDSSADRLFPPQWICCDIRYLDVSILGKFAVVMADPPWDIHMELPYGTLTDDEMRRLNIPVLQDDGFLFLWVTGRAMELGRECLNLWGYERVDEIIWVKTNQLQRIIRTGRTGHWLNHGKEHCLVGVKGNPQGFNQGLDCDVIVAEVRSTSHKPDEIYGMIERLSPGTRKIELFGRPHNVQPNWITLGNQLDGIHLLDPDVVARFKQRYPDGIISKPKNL
METTL3/METTL14, sequence (Q9HCE5 whole entry partner, species assumed): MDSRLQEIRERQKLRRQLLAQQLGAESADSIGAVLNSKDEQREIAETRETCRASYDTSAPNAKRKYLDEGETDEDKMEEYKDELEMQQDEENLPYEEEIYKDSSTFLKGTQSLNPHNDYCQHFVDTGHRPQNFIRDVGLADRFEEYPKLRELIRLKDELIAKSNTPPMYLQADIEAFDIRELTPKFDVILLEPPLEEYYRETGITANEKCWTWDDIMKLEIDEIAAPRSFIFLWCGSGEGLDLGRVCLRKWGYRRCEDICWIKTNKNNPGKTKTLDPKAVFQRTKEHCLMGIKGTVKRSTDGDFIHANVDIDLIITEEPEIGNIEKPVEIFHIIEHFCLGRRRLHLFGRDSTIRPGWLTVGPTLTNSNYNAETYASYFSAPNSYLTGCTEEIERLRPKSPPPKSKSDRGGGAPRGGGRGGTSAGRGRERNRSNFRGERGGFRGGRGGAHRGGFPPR
What is called IC50 is the point on the concentration scale where inhibition reaches its midpoint. Higher therefore signals weaker potency in that assay. As to `CC(O)CNC(=O)[C@H]1O[C@@H](n2cc(-c3ccn(C)n3)c3c(N)ncnc32)[C@H](O)[C@@H]1O` (stereo partly drawn) [Compound I-81], the IC50 is no less than 1000 nM.

As to `Cn1ccc(-c2cn([C@@H]3O[C@H](C(=O)Nc4nccs4)[C@@H](O)[C@H]3O)c3ncnc(N)c23)n1` [Compound I-82], the IC50 was no less than 1000 nM.

`Cc1nsc(NC(=O)[C@H]2O[C@@H](n3cc(-c4ccn(C)n4)c4c(N)ncnc43)[C@H](O)[C@@H]2O)n1` [Compound I-83] showed a half-maximal inhibitory concentration (IC50) of no less than 1000 nM.

On to `Cn1ccc(-c2cn([C@@H]3O[C@H](C(=O)NCc4ccc(OC(F)(F)F)cc4)[C@@H](O)[C@H]3O)c3ncnc(N)c23)n1` [Compound I-84], for which the IC50 is no less than 1000 nM.

In the case of `CCc1cccc(NC(=O)[C@H]2O[C@@H](n3cc(-c4ccn(C)n4)c4c(N)ncnc43)[C@H](O)[C@@H]2O)n1` [Compound I-85], the IC50 is no less than 1000 nM.

The compound `Cc1cc(NC(=O)[C@H]2O[C@@H](n3cc(-c4ccn(C)n4)c4c(N)ncnc43)[C@H](O)[C@@H]2O)n(C)n1` [Compound I-86] displayed an IC50 of no less than 1000 nM.

`Cn1ccc(-c2cn([C@@H]3O[C@H](C(=O)N[C@H](CO)c4ccccc4)[C@@H](O)[C@H]3O)c3ncnc(N)c23)n1` [Compound I-87] gave a half-maximal inhibitory concentration (IC50) of no less than 1000 nM.

Regarding `Cn1ccc(-c2cn([C@@H]3O[C@H](C(=O)N[C@@H](CO)c4ccccc4)[C@@H](O)[C@H]3O)c3ncnc(N)c23)n1` [Compound I-88], the IC50 is no less than 1000 nM.

`Cn1ccc(-c2cn([C@@H]3O[C@H](C(=O)NCC4CCOC4)[C@@H](O)[C@H]3O)c3ncnc(N)c23)n1` (stereo partly drawn) [Compound I-89]: the IC50 is no less than 1000 nM.

The compound `CN(C)S(=O)(=O)c1cccc(NC(=O)[C@H]2O[C@@H](n3cc(-c4ccn(C)n4)c4c(N)ncnc43)[C@H](O)[C@@H]2O)c1` [Compound I-90] showed an IC50 of no less than 1000 nM.

As for `Cn1ccc(-c2cn([C@@H]3O[C@H](C(=O)Nc4cnccn4)[C@@H](O)[C@H]3O)c3ncnc(N)c23)n1` [Compound I-91], the IC50 was no less than 1000 nM.

In the case of `Cc1ccc(C(N)=O)cc1NC(=O)[C@H]1O[C@@H](n2cc(-c3ccn(C)n3)c3c(N)ncnc32)[C@H](O)[C@@H]1O` [Compound I-92], the IC50 was no less than 1000 nM.

On to `Cc1cccnc1NC(=O)[C@H]1O[C@@H](n2cc(-c3ccn(C)n3)c3c(N)ncnc32)[C@H](O)[C@@H]1O` [Compound I-93], for which the IC50 is no less than 1000 nM.

Compound `Cn1ccc(-c2cn([C@@H]3O[C@H](C(=O)Nc4ccc5nsnc5c4)[C@@H](O)[C@H]3O)c3ncnc(N)c23)n1` [Compound I-94] displayed a concentration for half-maximal inhibition (IC50) of 100 to 1000 nM.

The compound `Cn1ccc(-c2cn([C@@H]3O[C@H](C(=O)NC4CCN(S(C)(=O)=O)CC4)[C@@H](O)[C@H]3O)c3ncnc(N)c23)n1` [Compound I-95] came in with an IC50 of 100 to 1000 nM.

As to `Cn1ccc(-c2cn([C@@H]3O[C@H](C(=O)NCCC4CCOCC4)[C@@H](O)[C@H]3O)c3ncnc(N)c23)n1` [Compound I-96], the IC50 lay in the range of 100 to 1000 nM.

Compound `COc1ccccc1CNC(=O)[C@H]1O[C@@H](n2cc(-c3ccn(C)n3)c3c(N)ncnc32)[C@H](O)[C@@H]1O` [Compound I-97] gave an IC50 of 100 to 1000 nM.

Take `Cn1ccc(-c2cn([C@@H]3O[C@H](C(=O)Nc4ccc(-c5ccccc5)cc4)[C@@H](O)[C@H]3O)c3ncnc(N)c23)n1` [Compound I-98]: the IC50 was in the range of 100 to 1000 nM.

Take `Cn1ccc(-c2cn([C@@H]3O[C@H](C(=O)N4CCc5ccccc54)[C@@H](O)[C@H]3O)c3ncnc(N)c23)n1` [Compound I-99]: the half-inhibitory concentration (IC50) is 100 to 1000 nM.

`Cn1ccc(-c2cn([C@@H]3O[C@H](C(=O)Nc4ccc(Oc5ccccc5)cc4)[C@@H](O)[C@H]3O)c3ncnc(N)c23)n1` [Compound I-100] had an IC50 of 100 to 1000 nM.

For the compound `CC(CNC(=O)[C@H]1O[C@@H](n2cc(-c3ccn(C)n3)c3c(N)ncnc32)[C@H](O)[C@@H]1O)c1ccccc1` (stereo partly drawn) [Compound I-101], the half-maximal inhibitory concentration (IC50) lay in the range of 100 to 1000 nM.

With `Cn1ccc(-c2cn([C@@H]3O[C@H](C(=O)NCCCn4ccnc4)[C@@H](O)[C@H]3O)c3ncnc(N)c23)n1` [Compound I-102], the IC50 was in the range of 100 to 1000 nM.

As for `Cn1ccc(-c2cn([C@@H]3O[C@H](C(=O)NC4CCC(O)CC4)[C@@H](O)[C@H]3O)c3ncnc(N)c23)n1` (stereo partly drawn) [Compound I-103], the IC50 lay within 100 to 1000 nM.

`Cn1cc(NC(=O)[C@H]2O[C@@H](n3cc(-c4ccn(C)n4)c4c(N)ncnc43)[C@H](O)[C@@H]2O)cn1` [Compound I-104] displayed a half-inhibitory concentration (IC50) of 100 to 1000 nM.

As for `Cn1ccc(-c2cn([C@@H]3O[C@H](C(=O)Nc4cccc(C#N)c4)[C@@H](O)[C@H]3O)c3ncnc(N)c23)n1` [Compound I-105], the half-inhibitory concentration (IC50) was in the range of 100 to 1000 nM.

`Cc1cc(CNC(=O)[C@H]2O[C@@H](n3cc(-c4ccn(C)n4)c4c(N)ncnc43)[C@H](O)[C@@H]2O)no1` [Compound I-106] displayed an IC50 of 100 to 1000 nM.

`Cn1ccc(-c2cn([C@@H]3O[C@H](C(=O)Nc4ccc(S(=O)(=O)N5CCOCC5)cc4)[C@@H](O)[C@H]3O)c3ncnc(N)c23)n1` [Compound I-107] showed an IC50 of 100 to 1000 nM.

In turn, `Cn1ccc(-c2cn([C@@H]3O[C@H](C(=O)NCCc4ccc(C(F)(F)F)cc4)[C@@H](O)[C@H]3O)c3ncnc(N)c23)n1` [Compound I-108] yielded an IC50 of 100 to 1000 nM.

`Cn1ccc(-c2cn([C@@H]3O[C@H](C(=O)Nc4ccnn4C)[C@@H](O)[C@H]3O)c3ncnc(N)c23)n1` [Compound I-109] returned an IC50 of 100 to 1000 nM.

Compound `CCCCc1ccc(NC(=O)[C@H]2O[C@@H](n3cc(-c4ccn(C)n4)c4c(N)ncnc43)[C@H](O)[C@@H]2O)cc1` [Compound I-110] displayed an IC50 of 100 to 1000 nM.

On to `Cn1ccc(-c2cn([C@@H]3O[C@H](C(=O)NCCc4ccc(Cl)cc4)[C@@H](O)[C@H]3O)c3ncnc(N)c23)n1` [Compound I-111], for which the IC50 lay within 100 to 1000 nM.

`Cn1ccc(-c2cn([C@@H]3O[C@H](C(=O)NCCc4ccncc4)[C@@H](O)[C@H]3O)c3ncnc(N)c23)n1` [Compound I-112] gave an IC50 of 100 to 1000 nM.

`Cc1cc(C#N)ccc1NC(=O)[C@H]1O[C@@H](n2cc(-c3ccn(C)n3)c3c(N)ncnc32)[C@H](O)[C@@H]1O` [Compound I-113] showed an IC50 of 100 to 1000 nM.

`Cn1ccc(-c2cn([C@@H]3O[C@H](C(=O)Nc4ccc5ccccc5c4)[C@@H](O)[C@H]3O)c3ncnc(N)c23)n1` [Compound I-114] yielded an IC50 of 100 to 1000 nM.

With `Cn1ccc(-c2cn([C@@H]3O[C@H](C(=O)NC(Cc4ccccc4)c4ccccc4)[C@@H](O)[C@H]3O)c3ncnc(N)c23)n1` (stereo partly drawn) [Compound I-115], the IC50 was in the range of 100 to 1000 nM.

As for `Cn1ccc(-c2cn([C@@H]3O[C@H](C(=O)NCCc4ccc(-c5ccccc5)cc4)[C@@H](O)[C@H]3O)c3ncnc(N)c23)n1` [Compound I-116], the IC50 lay in the range of 100 to 1000 nM.

For the compound `Cc1cc(F)ccc1NC(=O)[C@H]1O[C@@H](n2cc(-c3ccn(C)n3)c3c(N)ncnc32)[C@H](O)[C@@H]1O` [Compound I-117], the concentration for half-maximal inhibition (IC50) lay in the range of 100 to 1000 nM.

`Cn1ccc(-c2cn([C@@H]3O[C@H](C(=O)Nc4cccc5nsnc45)[C@@H](O)[C@H]3O)c3ncnc(N)c23)n1` [Compound I-118] gave a 50% inhibitory concentration (IC50) of 100 to 1000 nM.

Regarding `COc1ccccc1[C@H](C)NC(=O)[C@H]1O[C@@H](n2cc(-c3ccn(C)n3)c3c(N)ncnc32)[C@H](O)[C@@H]1O` [Compound I-119], the IC50 was in the range of 100 to 1000 nM.

Compound `Cn1ccc(-c2cn([C@@H]3O[C@H](C(=O)NCCC4CCCCC4)[C@@H](O)[C@H]3O)c3ncnc(N)c23)n1` [Compound I-120] yielded an IC50 of 100 to 1000 nM.

`Cn1ccc(-c2cn([C@@H]3O[C@H](C(=O)NCc4ccccc4-n4cccn4)[C@@H](O)[C@H]3O)c3ncnc(N)c23)n1` [Compound I-121] returned an IC50 of 100 to 1000 nM.

For `Cn1ccc(-c2cn([C@@H]3O[C@H](C(=O)Nc4ccncc4Cl)[C@@H](O)[C@H]3O)c3ncnc(N)c23)n1` [Compound I-122], the IC50 fell in the range of 100 to 1000 nM.

With `Cn1ccc(-c2cn([C@@H]3O[C@H](C(=O)Nc4ccc5c(c4)NC(=O)CC5)[C@@H](O)[C@H]3O)c3ncnc(N)c23)n1` [Compound I-123], the IC50 was in the range of 100 to 1000 nM.

As for `Cn1ccc(-c2cn([C@@H]3O[C@H](C(=O)Nc4ccc5c(c4)OCCCO5)[C@@H](O)[C@H]3O)c3ncnc(N)c23)n1` [Compound I-124], the IC50 fell in the range of 100 to 1000 nM.

In turn, `Cn1ccc(-c2cn([C@@H]3O[C@H](C(=O)Nc4ccc(CN5CCS(=O)(=O)CC5)cc4)[C@@H](O)[C@H]3O)c3ncnc(N)c23)n1` [Compound I-125] showed an IC50 of 100 to 1000 nM.

As for `Cn1ccc(-c2cn([C@@H]3O[C@H](C(=O)NC4Cc5ccccc5C4)[C@@H](O)[C@H]3O)c3ncnc(N)c23)n1` [Compound I-126], the IC50 was 100 to 1000 nM.

Turning to `CN1CCN(c2ccc(NC(=O)[C@H]3O[C@@H](n4cc(-c5ccn(C)n5)c5c(N)ncnc54)[C@H](O)[C@@H]3O)nc2)CC1` [Compound I-127], the half-inhibitory concentration (IC50) is 100 to 1000 nM.

`Cn1ccc(-c2cn([C@@H]3O[C@H](C(=O)NCCCN4CCCC4=O)[C@@H](O)[C@H]3O)c3ncnc(N)c23)n1` [Compound I-129] showed an IC50 of 100 to 1000 nM.

`CC(=O)Nc1ccccc1NC(=O)[C@H]1O[C@@H](n2cc(-c3ccn(C)n3)c3c(N)ncnc32)[C@H](O)[C@@H]1O` [Compound I-130]: the IC50 fell in the range of 100 to 1000 nM.

Compound `Cn1ccc(-c2cn([C@@H]3O[C@H](C(=O)NCc4ccc5ccccc5c4)[C@@H](O)[C@H]3O)c3ncnc(N)c23)n1` [Compound I-131] came in with an IC50 of 100 to 1000 nM.

`Cn1ccc(-c2cn([C@@H]3O[C@H](C(=O)Nc4ccc(OC(F)F)cc4)[C@@H](O)[C@H]3O)c3ncnc(N)c23)n1` [Compound I-132]: the IC50 was in the range of 100 to 1000 nM.

These data come from patent US20240051985A1, “METTL3 MODULATORS” (ACCENT THERAPEUTICS, INC., priority 2020, published 2024).
